Data on 18 compounds can be found in patent US20250320202A1, “PRMT5 INHIBITOR, PREPARATION METHOD THEREFOR, AND PHARMACEUTICAL USE THEREOF” (Abbisko Therapeutics Co., Ltd., priority 2022, published 2025).

Data set [1] deals with HCT116 MTAP knockout cells. The data set is described as follows: Human colon cancer HCT116 cell proliferation inhibition test (CellTiter-Glo, 6 days), MTAP knockout cells. The format is cell-based. The settings on record: HCT-116, 144 h. The protocol:
(§1) 1. HCT116 MTAP knockout and MTAP wild-type cells were plated in 96-well flat bottom plates, and cultured overnight with McCoy's 5A medium containing 10% fetal bovine serum+1% penicillin-streptomycin at 37° C. and 5% CO2.
(§2) 2. On the next day, the compound was dissolved with DMSO, diluted with DMSO and medium successively and transferred to the cell plate. The final concentration of the compound was 10 μM, the compound was diluted 4 times, with 9 concentration gradients, and DMSO control was added.
(§3) 3. Cells that have not been treated with the compound were removed. CellTiter-Glo Luminescent Cell Viability Assay (Promega) was used to detect cell viability, the operation was performed with reference to the package insert of the kit, and then the cell plate was placed on EnVision Multilabel Reader to detect the cold light signal.
(§4) 4. Meanwhile, the cell plate treated with the compound was cultured at 37° C. and 5% CO2 for 6 consecutive days.
(§5) 5. Then, CellTiter-Glo was also used to detect cell viability.
(§6) 6. Finally, the four-parameter dose-response curve module of GraphPad Prism v 9.2.0 software was used to plot the dose-response curve and calculate the IC50 for proliferation inhibition (unit: nM).
(Cellular ATP, detected with luciferase, serves as a proxy for viable cell number.)

Data set [2] deals with HCT116 MTAP wild-type cells. The data set is described as follows: Human colon cancer HCT116 cell proliferation inhibition test (CellTiter-Glo, 6 days), MTAP wild-type cells. The format is cell-based. The conditions noted are these: HCT-116, 144 h. The protocol:
as §1, §2, §3, §4, §5, §6

Data set [3] is described as follows: Pharmacokinetic assay in mice, blood-brain barrier penetration analysis (Kp). The format is in vivo. The settings on record: male, mouse, ICR mice, PO single dose 10 mg/kg, brain vs plasma, read-out: Kp (4 h after administration). The protocol: The purpose of this trial is to study the pharmacokinetic behavior of some compounds of the present invention, and the administration method is: ICR mice were orally administered (PO) a single dose, at a dose of 10 mg/kg.
ICR mice male N=3 original source: Shanghai Sippr-Bk Lab Animal Co., Ltd.
The compounds were weighed and dissolved in 20% PG+10% Solutol HS15+70% pH 3 citrate buffer, respectively, shaken well and sonicated to prepare colorless clear solutions. 9 mice were administered orally after an overnight fast. The dose was 10 mg/kg.
• 1) About 90 μL blood was collected via the submandibular vein per time point, heparin sodium anticoagulant was added, the sample was placed on ice after collection, and plasma was centrifuged within 1 hour (centrifugation conditions: 8,000 rpm, 6 minutes, 2-8° C.). • 2) The blood collection time points were 1, 4, and 24 h. The samples were stored in a refrigerator at −20° C. • 3) The plasma sample was 40 μL, 160 μL of ice-cold acetonitrile containing internal standard was added, vortexed for 3 minutes, and centrifuged at 11,000 rpm for 5 minutes. • 4) 100 μL of the supernatant was taken and added to 100 μL of water, 5 μL of the sample was taken and injected into LC/MS/MS for analysis.
AUC or concentration in brain or plasma measured by using the above method was used to calculate the Kp. Kp refers to the relationship between drug concentrations in brain and blood and is used to evaluate the ability of a drug to penetrate the blood-brain barrier. Post-dose Kp was calculated by the following formula: […]

In general, IC50 refers to the point on the concentration scale where inhibition reaches its midpoint. Read a low IC50 as inhibition by little substance. On to `Nc1nc2ccc(C(=O)N(CC3CC3)[C@@H]3COc4cc(C(F)(F)F)ccc43)cc2c2cnccc12` [Example 192, (S)-5-amino-N-(cyclopropylmethyl)-N-(6-(trifluoromethyl)-2,3-dihydrobenzofuran-3-yl)benzo[c][2,6]naphthyridin-9-carboxamide], for which the figures for the IC50 in data set [1] and in data set [2] were 3.6 nM and 79 nM, respectively. In addition, the Kp at 4 h in data set [3] came to 0.4.
With `Nc1nc2cc(F)c(C(=O)N(c3cscn3)[C@@H]3CCc4cc(C(F)(F)F)ccc43)cc2c2c1COC2` [Example 213, (R)-4-amino-7-fluoro-N-(thiazol-4-yl)-N-(5-(trifluoromethyl)-2,3-dihydro-1H-inden-1-yl)-1,3-dihydrofuro[3,4-c]quinolin-8-carboxamide], the results for the IC50 in data set [1] and in data set [2] were 3 nM and 70 nM, respectively.
Consider `Nc1nc2ccc(C(=O)N(CC3CC3)[C@@H]3CCc4cc(C(F)(F)F)ccc43)cc2c2cnccc12` [Example 219, (R)-5-amino-N-(cyclopropylmethyl)-N-(5-(trifluoromethyl)-2,3-dihydro-1H-inden-1-yl)benzo[c][2,6]naphthyridin-9-carboxamide], for which the figures for the IC50 in data set [1] and in data set [2] were 35 nM and 1560 nM, respectively. Besides, the Kp at 4 h in data set [3] came to 0.5.
On to `Cn1cc(N(C(=O)c2cc3c4c(c(N)nc3cc2F)COC4)[C@@H]2CCc3cc(C(F)(F)F)ccc32)cn1` [Example 220, (R)-4-amino-7-fluoro-N-(1-methyl-1H-pyrazol-4-yl)-N-(5-(trifluoromethyl)-2,3-dihydro-1H-inden-1-yl)-1,3-dihydrofuro[3,4-c]quinolin-8-carboxamide], for which the IC50 in data set [1] worked out at 17 nM; in data set [2] it was 335 nM.
The matching figures for `C[C@H](c1ncccn1)N(C(=O)c1cc2c(cc1F)nc(N)c1cnn(C)c12)[C@@H]1CCc2cc(C(F)(F)F)ccc21` [Example 221, 4-amino-7-fluoro-1-methyl-N-((R)-1-(pyrimidin-2-yl)ethyl)-N-((R)-5-(trifluoromethyl)-2,3-dihydro-1H-inden-1-yl)-1H-pyrazolo[4,3-c]quinolin-8-carboxamide]: 88 nM and 1340 nM.
On to `Nc1nc2ccc(C(=O)N(C3CC3)C3CCc4nc(C(F)(F)F)ccc43)cc2c2cnccc12` (stereo not drawn) [Example 225, 5-amino-N-cyclopropyl-N-(2-(trifluoromethyl)-6,7-dihydro-5H-cyclopenta[b]pyridin-5-yl)benzo[c][2,6]naphthyridin-9-carboxamide], for which the IC50 came out at 286 nM in data set [1] and 9470 nM in data set [2].
The matching figures for `Cn1cc(N(C(=O)c2ccc3nc(N)c4ccncc4c3c2)[C@@H]2CCc3cc(C(F)(F)F)ccc32)cn1` [Example 226, (R)-5-amino-N-(1-methyl-1H-pyrazol-4-yl)-N-(5-(trifluoromethyl)-2,3-dihydro-1H-inden-1-yl)benzo[c][2,6]naphthyridin-9-carboxamide]: 50 nM and 1950 nM.
The matching figures for `CN(C(=O)c1ccc2nc(N)c3ccncc3c2c1)[C@@H]1CCc2cc(C(F)(F)F)ccc21` [Example 227, (R)-5-amino-N-methyl-N-(5-(trifluoromethyl)-2,3-dihydro-1H-inden-1-yl)benzo[c][2,6]naphthyridin-9-carboxamide]: 85 nM and 1070 nM.
As to `Cn1cc(N(C(=O)c2cc3c(cc2F)nc(N)c2cnn(C)c23)[C@@H]2CCc3cc(C(F)(F)F)ccc32)cn1` [Example 229, (R)-4-amino-7-fluoro-1-methyl-N-(1-methyl-1H-pyrazol-4-yl)-N-(5-(trifluoromethyl)-2,3-dihydro-1H-inden-1-yl)-1H-pyrazolo[4,3-c]quinolin-8-carboxamide], the results for the IC50 in data set [1] and in data set [2] were 3 nM and 61 nM, respectively.
As for `Cc1cc2nc(N)c3ccncc3c2cc1C(=O)N(CC1CC1)[C@@H]1COc2nc(C(F)(F)F)ccc21` [Example 230, (S)-5-amino-N-(cyclopropylmethyl)-8-methyl-N-(6-(trifluoromethyl)-2,3-dihydrofuro[2,3-b]pyridin-3-yl)benzo[c][2,6]naphthyridin-9-carboxamide], the IC50 in data set [1] was 13 nM; in data set [2] it was 145 nM.
Regarding `Nc1nc2cc(F)c(C(=O)N(CC3CC3)[C@@H]3COc4nc(C(F)(F)F)ccc43)cc2c2cnccc12` [Example 231, (S)-5-amino-N-(cyclopropylmethyl)-8-fluoro-N-(6-(trifluoromethyl)-2,3-dihydrofuro[2,3-b]pyridin-3-yl)benzo[c][2,6]naphthyridin-9-carboxamide], the IC50 was 15 nM in data set [1] and 604 nM in data set [2].
`Nc1nc2cc(Cl)c(C(=O)N(CC3CC3)[C@@H]3COc4nc(C(F)(F)F)ccc43)cc2c2cnccc12` [Example 232, (S)-5-amino-8-chloro-N-(cyclopropylmethyl)-N-(6-(trifluoromethyl)-2,3-dihydrofuro[2,3-b]pyridin-3-yl)benzo[c][2,6]naphthyridin-9-carboxamide]: the figures for the IC50 in data set [1] and in data set [2] were 10 nM and 363 nM, respectively.
Regarding `Cc1cc2nc(N)c3ccncc3c2cc1C(=O)N(CC1CC1)[C@@H]1COc2cc(C(F)(F)F)ccc21` [Example 233, (S)-5-amino-N-(cyclopropylmethyl)-8-methyl-N-(6-(trifluoromethyl)-2,3-dihydrobenzofuran-3-yl)benzo[c][2,6]naphthyridin-9-carboxamide], the concentration for half-maximal inhibition (IC50) in data set [1] was found to be 33 nM; in data set [2] it was 102 nM. Also, in data set [3], the Kp at 4 h came out at 0.4.
On to `Cc1cc2nc(N)c3ccncc3c2cc1C(=O)N(CC1CC1)[C@@H]1CCc2nc(C(F)(F)F)ccc21` [Example 236, (R)-5-amino-N-(cyclopropylmethyl)-8-methyl-N-(2-(trifluoromethyl)-6,7-dihydro-5H-cyclopenta[b]pyridin-5-yl)benzo[c][2,6]naphthyridin-9-carboxamide], for which the IC50 amounted to 9 nM in data set [1] and 227 nM in data set [2].
As to `Nc1nc2cc(F)c(C(=O)N(CC3CC3)[C@@H]3CCc4nc(C(F)(F)F)ccc43)cc2c2cnccc12` [Example 237, (R)-5-amino-N-(cyclopropylmethyl)-8-fluoro-N-(2-(trifluoromethyl)-6,7-dihydro-5H-cyclopenta[b]pyridin-5-yl)benzo[c][2,6]naphthyridin-9-carboxamide], the IC50 in data set [1] is 20 nM; in data set [2], 788 nM.
`Nc1nc2cc(Cl)c(C(=O)N(CC3CC3)[C@@H]3CCc4nc(C(F)(F)F)ccc43)cc2c2cnccc12` [Example 238, (R)-5-amino-8-chloro-N-(cyclopropylmethyl)-N-(2-(trifluoromethyl)-6,7-dihydro-5H-cyclopenta[b]pyridin-5-yl)benzo[c][2,6]naphthyridin-9-carboxamide]: the results for the IC50 in data set [1] and in data set [2] were 14 nM and 264 nM, respectively.
For `CCN(C(=O)c1cc2c(cc1F)nc(N)c1cnn(C)c12)C1CCc2cc(C(F)(F)F)ccc21` (stereo not drawn) [Reference Compound 1, reference compound] the same measures were 54 nM and 696 nM.
Regarding `Cn1cc(N(Cc2ccc(C(F)(F)F)cn2)C(=O)c2cc3c(cc2F)nc(N)c2cnn(C)c23)cn1` [compound 3, reference compound], the IC50 in data set [1] is 9 nM; in data set [2] it was 278 nM.
